The results in this text go back to patent US10487092B2, “Pyrazolopyridinamines as MKNK1 and MKNK2 inhibitors” (BAYER PHARMA AKTIENGESELLSCHAFT, priority 2014, dated 2019).

Structures are written as SMILES.

For orientation: IC50 means the concentration that inhibits the measured activity by half.

Chain of human full-length MKNK1 (Q9BUB5 other isoform, or with tags, fused parts or gaps T344D): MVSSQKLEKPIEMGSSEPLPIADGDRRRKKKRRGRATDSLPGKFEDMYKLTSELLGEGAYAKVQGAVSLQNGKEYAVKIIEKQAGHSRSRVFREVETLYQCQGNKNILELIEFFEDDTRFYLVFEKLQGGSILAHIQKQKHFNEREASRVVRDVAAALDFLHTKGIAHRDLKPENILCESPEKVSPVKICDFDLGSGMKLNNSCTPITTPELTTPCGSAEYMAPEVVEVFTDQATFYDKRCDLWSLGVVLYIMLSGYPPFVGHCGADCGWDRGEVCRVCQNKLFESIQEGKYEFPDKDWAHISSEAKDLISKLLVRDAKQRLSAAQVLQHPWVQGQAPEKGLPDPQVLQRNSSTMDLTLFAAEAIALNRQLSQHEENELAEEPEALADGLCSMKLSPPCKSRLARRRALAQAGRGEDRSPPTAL

This assay has as its target human full-length MKNK1 (Homo sapiens (Human), UniProt Q9BUB5, T344D). The assay is described as follows: MKNK1 kinase high ATP assay (TR-FRET). The class given is biochemical. The settings on record: high ATP (2 mM), 15 min preincubation with enzyme; read-out: MKNK1 IC50. The gist of the method:
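GST-tagged full-length MKNK1 (aa 1–424, T344D; insect-cell expressed) preincubated 15 min with compound, then reacted 30 min at 22 °C with 2 mM ATP and 0.06 μM biotinylated peptide (final) in HEPES pH 7.5 buffer. Phosphopeptide detected by TR-FRET 665/620 ratio, normalized to no-inhibitor and no-enzyme controls.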
In general terms: Time-resolved FRET reads energy transfer from a long-lived donor to a nearby acceptor.
For `CC(C)NC(=O)[C@H]1CCc2c(sc3ncnc(Nc4cc5ccnn5cc4Cl)c23)C1` [Example 44, (7S)-4-[(6-Chloropyrazolo[1,5-a]pyridin-5-yl)amino]-N-(propan-2-yl)-5,6,7,8-tetrahydro[1]benzothieno[2,3-d]pyrimidine-7-carboxamide], the IC50 was determined as 54 nM.
With `CN1C[C@H]2C[C@@H]1CN2C(=O)[C@H]1CCc2c(sc3ncnc(Nc4cc5ccnn5cc4Cl)c23)C1` [Example 73, (7S)-4-[(6-Chloropyrazolo[1,5-a]pyridin-5-yl)amino]-5,6,7,8-tetrahydro[1]benzothieno[2,3-d]pyrimidin-7-yl[(1R,4R)-5-methyl-2,5-diazabicyclo[2.2.1]hept-2-yl]methanone], the IC50 was 4 nM.
Next, `COCCN(C)C(=O)[C@H]1CCc2c(sc3ncnc(Nc4cc5ccnn5cc4Cl)c23)C1` [Example 56, (7S)-4-[(6-Chloropyrazolo[1,5-a]pyridin-5-yl)amino]-N-(2-methoxyethyl)-N-methyl-5,6,7,8-tetrahydro[1]benzothieno[2,3-d]pyrimidine-7-carboxamide]: 41 nM; `COc1cn2nccc2cc1Nc1ncnc2sc3c(c12)CC[C@H](C(=O)NCC(C)(C)O)C3` [Example 81, (7S)—N-(2-Hydroxy-2-methylpropyl)-4-[(6-methoxypyrazolo[1,5-a]pyridin-5-yl)amino]-5,6,7,8-tetrahydro[1]benzothieno[2,3-d]pyrimidine-7-carboxamide]: 2 nM; `COc1cn2nccc2cc1Nc1ncnc2sc3c(c12)CC[C@H](C(=O)N1C[C@@H](C)O[C@@H](C)C1)C3` [Example 112, [(2R,6S)-2,6-Dimethylmorpholin-4-yl](7S)-4-[(6-methoxypyrazolo[1,5-a]pyridin-5-yl)amino]-5,6,7,8-tetrahydro[1]benzothieno[2,3-d]pyrimidin-7-ylmethanone]: 2 nM.
Next, `O=C([C@H]1CCc2c(sc3ncnc(Nc4cc5ccnn5cc4Cl)c23)C1)N1C[C@H](O)[C@@H](O)C1` [Example 60, (7S)-4-[(6-Chloropyrazolo[1,5-a]pyridin-5-yl)amino]-5,6,7,8-tetrahydro[1]benzothieno[2,3-d]pyrimidin-7-yl[(3S,4S)-3,4-dihydroxypyrrolidin-1-yl]methanone]: 18 nM.
As for `COc1cn2nccc2cc1Nc1ncnc2sc3c(c12)CC[C@H](C(=O)N1CCC(N(C)C)CC1)C3` [Example 109, [4-(Dimethylamino)piperidin-1-yl](7S)-4-[(6-methoxypyrazolo[1,5-a]pyridin-5-yl)amino]-5,6,7,8-tetrahydro[1]benzothieno[2,3-d]pyrimidin-7-ylmethanone], the IC50 is 1 nM.
Regarding `CCN(CCN(C)C)C(=O)[C@H]1CCc2c(sc3ncnc(Nc4cc5ccnn5cc4Cl)c23)C1` [Example 67, (7S)-4-[(6-Chloropyrazolo[1,5-a]pyridin-5-yl)amino]-N-[2-(dimethylamino)ethyl]-N-ethyl-3,5,6,7,8-tetrahydro[1]benzothieno[2,3-d]pyrimidine-7-carboxamide], the IC50 turned out to be 30 nM.
Regarding `CCN(CCO)C(=O)[C@H]1CCc2c(sc3ncnc(Nc4ccn5nccc5c4)c23)C1` [Example 21, (7S)—N-Ethyl-N-(2-hydroxyethyl)-4-(pyrazolo[1,5-a]pyridin-5-ylamino)-5,6,7,8-tetrahydro[1]benzothieno[2,3-d]pyrimidine-7-carboxamide], the half-maximal inhibitory concentration (IC50) stood at 19 nM.
Consider `COc1cn2nccc2cc1Nc1ncnc2sc3c(c12)CC[C@H](C(=O)N(C)CCN(C)C)C3` [Example 101, (7S)—N-[2-(Dimethylamino)ethyl]-4-[(6-methoxypyrazolo[1,5-a]pyridin-5-yl)amino]-N-methyl-5,6,7,8-tetrahydro[1]benzothieno[2,3-d]pyrimidine-7-carboxamide], for which the IC50 is 2 nM.
Next, `C[C@@H]1COC[C@@H](C)N1C(=O)[C@H]1CCc2c(sc3ncnc(Nc4ccn5nccc5c4)c23)C1` [Example 14, [(3R,5R)-3,5-Dimethylmorpholin-4-yl][(7S)-4-(pyrazolo[1,5-a]pyridin-5-ylamino)-5,6,7,8-tetrahydro[1]benzothieno[2,3-d]pyrimidin-7-yl]methanone]: 7 nM.
